Source: ChEMBL document CHEMBL1201862, “PubChem BioAssay data set” (2004)
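Interpolation was linear, between the two tested concentrations surrounding the appropriate level; five concentrations were tested over 48 hours in 96-well plates. GI50 is the concentration that inhibits growth by half.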 Calls of active or inactive are those of the source. No stated cut-off is given here; in the data, active = GI50 up to about 1.1 µM and inactive = higher.

Key:
Assay in all cases: NCI anticancer screen, dose series, 48 h
[1] = tested on: LXFL 529
[2] = tested on: M19-MEL
[3] = tested on: DMS-114
[4] = tested on: SNB-78
[5] = tested on: DLD-1
[6] = tested on: KM-20L2
[7] = tested on: HOP-18
[8] = tested on: XF498
[9] = tested on: RXF 631

Measured: GI50

CC(C)CCS(=O)(=O)OCCCCOS(=O)(=O)CCC(C)C
inactive: [1] > 100 µM | [2] > 100 µM | [3] > 100 µM | [4] > 100 µM | [5] > 100 µM | [6] > 100 µM

Oc1cc(O)cc(/C=C/c2ccc(O)c(O)c2)c1 [PICEATANNOL]
inactive: [2] 12.2 µM | [3] 5.66 µM | [4] 17.9 µM | [5] 8.57 µM | [7] 45.5 µM | [6] 23.4 µM

COc1ccc(-c2nc(N)n(C)c2SSc2c(-c3ccc(OC)cc3)nc(N)n2C)cc1
inactive: [1] 1.67 µM | [2] 2.29 µM | [3] 2.26 µM | [8] 2.13 µM | [5] 4.3 µM | [7] 5.57 µM | [6] 12.9 µM

CCOC(=O)c1cnc2sc3ccc4ccccc4c3n2c1=O
inactive: [1] 55.2 µM | [2] > 100 µM | [3] 71.6 µM | [4] > 100 µM | [5] > 100 µM | [9] 64.6 µM | [7] > 100 µM | [6] 72.1 µM

Clc1ccc(-c2c(C3=NCCCN3)nnn2-c2ccc(Cl)cc2)cc1
inactive: [1] 29 µM | [3] 21.7 µM | [4] 43.6 µM | [8] 22.6 µM | [5] > 68.9 µM | [7] > 100 µM | [6] 29.5 µM

O=C1OC(c2ccccc2)=N/C1=C\c1c(O)cc(O)cc1O
inactive: [1] 41 µM | [2] 83.6 µM | [3] > 100 µM | [4] > 100 µM | [7] > 100 µM | [6] > 100 µM

c1ccc(C2=NOC3(c4ccccc4)SC4CCCCC4CN23)cc1 (centres undefined)
inactive: [1] 13.2 µM | [2] 30.5 µM | [3] 15.6 µM | [4] 34 µM | [8] 52.4 µM | [5] 40.5 µM | [7] 26.9 µM | [6] 39.5 µM

O=[N+]([O-])c1ccc2nc(/C(=N\Nc3ccccc3)C(O)c3ccc4c(c3)OCO4)c(O)nc2c1 (centres undefined)
inactive: [1] 50.7 µM | [2] > 100 µM | [3] 37.4 µM | [4] > 100 µM | [5] > 100 µM | [9] > 100 µM | [6] 67 µM

NNC(=O)/C(NC(=O)c1ccccc1)=C(\N)c1ccc(Cl)cc1
inactive: [1] > 100 µM | [2] > 100 µM | [3] > 100 µM | [4] > 100 µM | [5] > 100 µM | [7] > 100 µM | [6] > 100 µM

COc1cc2c(cc1OC)C(C(c1ccccc1)c1ccccc1)N(C)CC2 (centres undefined)
inactive: [2] > 91.6 µM | [3] 41.8 µM | [4] > 100 µM | [8] 53 µM | [5] > 78.9 µM | [7] > 100 µM | [6] 32.6 µM

Cc1ccc(OC(=O)N2C/C(=C\c3ccccc3)C(=O)/C(=C/c3ccccc3)C2)cc1
inactive: [1] 9.98 µM | [2] 5.53 µM | [3] 15.1 µM | [4] 28.4 µM | [8] 26.2 µM | [5] 6.84 µM | [9] 40.7 µM | [7] > 46.2 µM | [6] 39.7 µM

COc1cc(/C=C/C(=O)c2cccc3ccccc23)cc(OC)c1OC
inactive: [1] 2.73 µM | [2] 7.33 µM | [4] 3.44 µM | [8] 7.74 µM | [5] 3.85 µM | [7] 12.4 µM | [6] 3.94 µM

CC1=C2[C@H](c3ccccc3)C3C=CC2(c2ccccc23)N(C(=O)C(c2ccccc2)c2ccccc2)C1=O (some centres undefined)
inactive: [1] > 100 µM | [2] > 100 µM | [3] > 100 µM | [8] > 100 µM | [5] > 100 µM | [7] > 100 µM | [6] > 100 µM

CCOC(=O)c1nc2ccc([N+](=O)[O-])cc2c2c1CCO2
inactive: [1] > 100 µM | [2] > 100 µM | [3] > 100 µM | [4] > 100 µM | [8] > 100 µM | [5] > 100 µM | [9] > 100 µM | [7] 71 µM | [6] > 100 µM

C/N=c1\ss/c(=N\C(=S)N(C)C)n1C1CCCCC1
inactive: [1] > 31.6 µM | [2] > 31.6 µM | [3] > 31.6 µM | [4] > 31.6 µM | [8] > 31.6 µM | [5] > 100 µM | [9] > 100 µM | [7] > 31.6 µM | [6] > 31.6 µM

Oc1cc(Cl)ncn1
inactive: [1] > 100 µM | [2] > 100 µM | [3] > 100 µM | [4] > 100 µM | [5] > 100 µM | [9] > 100 µM | [7] > 100 µM | [6] > 100 µM

O=C1CCC(=O)C(C(=O)CCC(=O)Nc2ccc(Cl)cc2)C1 (centres undefined)
inactive: [1] > 100 µM | [3] > 100 µM | [4] > 100 µM | [8] > 100 µM | [5] > 100 µM | [9] > 100 µM | [7] > 100 µM | [6] > 100 µM

Cc1ccc(N2C(=O)/C(=C/c3ccc(N(CCC#N)CCC#N)cc3)N=C2COc2ccc(Cl)cc2Cl)cc1
inactive: [1] > 100 µM | [3] > 100 µM | [4] > 100 µM | [8] > 100 µM | [5] > 100 µM | [9] > 100 µM | [7] 33.8 µM | [6] > 100 µM

CC1CN1c1c(C(=O)/C=C/c2ccc(F)cc2)c(-c2ccccc2)nn(C)c1=O (centres undefined)
inactive: [1] 16.7 µM | [2] 14.6 µM | [3] 15.7 µM | [4] 23.4 µM | [8] 15.3 µM | [5] 12.8 µM | [7] 15.2 µM | [6] 17.7 µM

O=C1C=C2SC3C[C@@]24CC1[N+]1=c2c4c(c(O)c4c2=C(C=N4)CC1)N3
inactive: [2] 1.9 µM | [3] 1.39 µM | [4] 2.61 µM | [8] 1.91 µM | [5] 2.07 µM | [7] 6.49 µM | [6] 1.92 µM

Cc1c(C2Cc3ccccc3N2C(=O)/C=C\C(=O)O)c2ccccc2n1C (centres undefined)
inactive: [1] 17.3 µM | [2] 19.7 µM | [3] 18.7 µM | [4] 35.5 µM | [8] 17.3 µM | [5] 35.9 µM | [9] > 100 µM | [6] 25.1 µM

Cc1c(C(=O)CC(=O)C(=O)NC2C3CC4CC(C3)CC2C4)[n+]([O-])c2ccccc2[n+]1[O-] (centres undefined)
inactive: [1] > 100 µM | [2] 90.2 µM | [3] > 100 µM | [4] > 100 µM | [8] 93.5 µM | [9] > 100 µM | [7] 24.4 µM | [6] > 100 µM

CC1=CC(=O)N2[C@H](OC[C@@H]2C(C)C)O1
inactive: [1] > 100 µM | [2] > 100 µM | [3] > 100 µM | [8] > 100 µM | [5] > 100 µM | [9] > 100 µM | [7] > 100 µM | [6] > 100 µM

N#C/N=C(\N)NCCO
inactive: [1] > 100 µM | [2] 40.3 µM | [3] 75.3 µM | [4] > 100 µM | [8] > 100 µM | [5] > 100 µM | [9] > 100 µM | [7] > 100 µM | [6] > 100 µM

CCOC(=O)c1c(C)c2c(n1C)CCc1c[nH]nc1-2
inactive: [2] > 100 µM | [3] > 100 µM | [4] > 100 µM | [8] > 100 µM | [5] > 100 µM | [7] > 100 µM | [6] > 100 µM
